The values below come from ChEMBL document CHEMBL1129766, “SAR of 2-benzyl-4-aminopiperidines: CGP 49823, an orally and centrally active non-peptide NK1 antagonist” (Bioorg Med Chem Lett, 1996).

Assay [1] relates to Gerbillinae. The assay is described as follows: (§1) Tested for inhibition of thumping behavior in gerbils induced by iv administration of SP-methyl ester 2 hours after peroral administration of 30 mg/kg of the compound. The format is functional. The note with it: route oral.
The target in assay [2] is T1, Substance-K receptor (Bos taurus) (UniProt P05363).
T1 sequence (whole entry): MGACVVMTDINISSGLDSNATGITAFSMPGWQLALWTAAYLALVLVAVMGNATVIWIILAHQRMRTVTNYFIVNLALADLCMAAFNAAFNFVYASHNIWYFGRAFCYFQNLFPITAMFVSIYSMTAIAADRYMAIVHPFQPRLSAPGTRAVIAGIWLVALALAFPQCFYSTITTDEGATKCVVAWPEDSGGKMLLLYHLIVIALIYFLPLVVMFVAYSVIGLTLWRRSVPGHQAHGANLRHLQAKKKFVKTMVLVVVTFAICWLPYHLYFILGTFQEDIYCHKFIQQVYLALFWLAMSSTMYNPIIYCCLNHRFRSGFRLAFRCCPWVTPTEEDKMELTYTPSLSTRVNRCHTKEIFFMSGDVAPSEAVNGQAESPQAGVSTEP
The assay is described as follows: Compound was tested for inhibition of [125I]NKA radioligand binding to NK2 receptor from bovine bladder at 1 uM.

In the next assay the test system is U373 MG. The assay is described as follows: Compound was tested for inhibition of substance P induced phosphatidyl inositol turnover in human U-373 cells. In kind it is functional, cell-based, U-373MG ATCC.
Assay [3] has as its target T2, Neuromedin-K receptor (Homo sapiens) (UniProt P29371).
T2 sequence (whole entry): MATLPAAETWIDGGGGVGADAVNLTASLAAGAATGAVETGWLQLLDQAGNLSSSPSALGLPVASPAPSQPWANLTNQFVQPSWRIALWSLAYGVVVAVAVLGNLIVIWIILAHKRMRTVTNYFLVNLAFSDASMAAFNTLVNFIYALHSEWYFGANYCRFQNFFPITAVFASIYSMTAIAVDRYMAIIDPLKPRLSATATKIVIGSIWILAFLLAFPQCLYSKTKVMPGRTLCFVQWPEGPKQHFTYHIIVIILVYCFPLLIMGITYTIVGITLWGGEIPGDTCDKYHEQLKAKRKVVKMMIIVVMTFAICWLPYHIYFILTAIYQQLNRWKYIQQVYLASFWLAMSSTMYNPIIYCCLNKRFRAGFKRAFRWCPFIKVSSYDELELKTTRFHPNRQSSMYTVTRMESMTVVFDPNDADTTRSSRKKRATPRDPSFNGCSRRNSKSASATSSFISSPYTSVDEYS
The note with it: Gerbillinae.

Assay [4] relates to Gerbillinae. The assay is described as follows: Compound was tested for inhibition of thumping behavior in gerbils induced by iv administration of SP-methyl ester 2 hours after peroral administration of 30 mg/kg of the compound. The format is functional. The note with it: route oral.
For a further assay, the target named is T3, Substance-K receptor (Bos taurus, UniProt P05363).
T3 sequence (P05363 whole entry): T1 sequence (whole entry)
Kind of assay: (§2) Compound was tested for inhibition of [125I]NKA radioligand binding to NK2 receptor from bovine bladder.

The target in assay [5] is T1, Substance-K receptor (Bos taurus). The description is as §2. The note with it: concentration not given here.
A further assay deals with T4, Neuromedin-K receptor (Homo sapiens, UniProt P29371).
T4 sequence (P29371 whole entry): T2 sequence (whole entry)
Kind of assay: Compound was tested for inhibition of [125I]eledoisin radioligand binding to NK3 receptor from gerbil cortex; NA means no activity. Also on record: species or system Gerbillinae.

Assay [6] has as its system Gerbillinae. The assay is described as §1. In kind it is functional, organism-based. The arrangement: dose 30 mg/kg, route oral.
The test system of assay [7] is Gerbillinae. Kind of assay: Tested for inhibition of thumping behavior in gerbils induced by iv administration of SP-methyl ester 2 hours after intraperitoneal administration of 60 mg/kg of the compound. In kind it is functional.

Each structure is given as a SMILES string. Active and inactive are the calls of the source. The rule behind the calls is not given here.

On to `Cc1cc(C)cc(C(=O)N2CC[C@@H](NCc3ccnc4ccccc34)C[C@@H]2Cc2ccccc2)c1`, for which testing at 30 mg/kg in the assay with Gerbillinae [1] gave an inhibition in vivo of 54%. Besides, the inhibition in assay [2] is 5%. The compound also gave an IC50 with U373 MG of 150 nM. In addition, in [3], the NA entry was “inactive”.
As to `O=C(N[C@H]1CCN(C(=O)c2cc(Cl)cc(Cl)c2)[C@H](Cc2ccccc2)C1)c1ccnc2ccccc12`, at 30 mg/kg the inhibition in vivo in the assay with Gerbillinae [4] was 66%. For the same compound, the results for the 50% inhibitory concentration (IC50) on Substance-K receptor and in the assay on U373 MG were 4500 nM and 24 nM, respectively.
`Cc1cc(C)cc(C(=O)N2CC[C@H](NCc3ccnc4ccccc34)C[C@H]2Cc2ccccc2)c1` showed an inhibition in vivo at 30 mg/kg with Gerbillinae [1] of 34%. For the same compound, the values for the IC50 on Substance-K receptor and in the assay with U373 MG were 2790 nM and 12 nM, respectively.
`O=C(N[C@H]1CCN(C(=O)c2cc(C(F)(F)F)cc(C(F)(F)F)c2)[C@H](Cc2ccccc2)C1)c1cc(O)nc2ccccc12` registered an inhibition in vivo at 30 mg/kg with Gerbillinae [4] of 24%. This compound had an inhibition in assay [5] of 28%.
`COc1ccccc1CN[C@H]1C2CCN(CC2)[C@H]1C(c1ccccc1)c1ccccc1` [CP-96345] had an inhibition in vivo at 30 mg/kg with Gerbillinae [1] of 61%. The IC50 result on Neuromedin-K receptor was “Not Active”; with U373 MG, 9 nM. Also, the inhibition in assay [2] was 24%.
For `Cc1cc(C)cc(C(=O)N2CC[C@H](NCc3cnc4ccccc4c3)C[C@H]2Cc2ccccc2)c1`, the inhibition was found to be 21% with Gerbillinae [6] and 22% in assay [5]. The same compound registered an IC50 in the assay with U373 MG of 210 nM.
With `Cc1cc(C)cc(C(=O)N2CC[C@@H](NCc3ccnc4ccccc34)C[C@H]2Cc2ccccc2)c1`, in the assay on Gerbillinae [7], the inhibition in vivo at 60 mg/kg was determined as 20%.
